Tests used:
Format in all cases: in vivo
Heliothis armigera = Heliothis armigera test on cotton; drench application; details: Helicoverpa armigera, soil, 168 h, mortality 7 days after infestation, read-out: % Activity (according to Abbott); for pest or weed control at 1 mg/plant: 1 mg of ai/plant; for pest or weed control at 0.5 mg/plant: 0.5 mg of ai/plant
Protocol: Heliothis armigera Test on Cotton; Drench Application
(§1) • Solvent: 4 parts by weight of acetone • Emulsifier: 1 part by weight of alkylaryl polyglycol ether
(§2) To produce a suitable preparation of active compound, 1 part by weight of active compound is mixed with the stated amounts of solvent and emulsifier, and the concentrate is diluted with water to the desired concentration. Cotton plants (Gossypium hirsuium) are watered with a solution of the product in question (volume of water: 50 ml/plant). The stated concentration refers to the amount of active compound per plant. After about 1 week, the treated plants are infested with larvae of the cotton bollworm (Heliothis armigera). After 1 week, the activity in % is determined. 100% means that all caterpillars have been killed; 0% means that none of the caterpillars have been killed.

Plutella xylostella = Plutella xylostella test on Savoy cabbage; drench application; details: soil, 168 h, mortality 7 days after infestation, read-out: % Activity (according to Abbott); for pest or weed control at 1 mg/plant: 1 mg of ai/plant; for pest or weed control at 0.5 mg/plant: 0.5 mg of ai/plant
Protocol: Plutella xylostella test on Savoy Cabbage; Drench Application
as §1
as §2, with “Savoy cabbage (Brassica oleracea) is” for “Cotton plants (Gossypium hirsuium) are”, “60” for “50”, “diamondback moth (Plutella xylostella).” for “cotton bollworm (Heliothis armigera).”

Spodoptera frugiperda [1] = assay: Spodoptera frugiperda test on maize; drench application (Example B); details: soil, 168 h, mortality 7 days after infestation, read-out: % Activity (according to Abbott); for pest or weed control at 1 mg/plant: 1 mg of ai/plant; for pest or weed control at 0.5 mg/plant: 0.5 mg of ai/plant
Protocol: Spodoptera frugiperda Test on Maize; Drench Application
as §1
as §2, with “Maize” for “Cotton”, “(Zea mays)” for “(Gossypium hirsuium)”, “with” for “with larvae of”, “armyworm (Spodoptera frugiperda).” for “cotton bollworm (Heliothis armigera).”

Diabrotica balteata = Diabrotica balteata test on maize; drench application; details: soil, 192 h, mortality 8 days after treatment, mixtures about 95%/5%, read-out: % Activity (according to Abbott)
Protocol: Diabrotica balteata Test on Maize; Drench Application • Solvent: 7 parts by weight of dimethylformamide • Emulsifier: 1 part by weight of alkylaryl polyglycol ether To produce a suitable preparation of active compound, 1 part by weight of active compound is mixed with the stated amounts of solvent and emulsifier, and the concentrate is diluted with water to the desired concentration. Maize plants (Zea mays) are watered with the solution of the product in question and infested with larvae of the banded cucumber beetle (Diabrotica baltenta). After 8 days, the activity in % is determined. 100% means that all caterpillars have been killed; 0% means that none of the caterpillars have been killed.

Myzus persicae = Myzus persicae test on Savoy cabbage; drench application; details: soil, 240 h, mortality 10 days after treatment, mixtures about 85%/15% and 84%/15%, read-out: % Activity (according to Abbott)
Protocol: Myzus persicae Test on Savoy Cabbage; Drench Application • Solvent: 7 parts by weight of dimethylformamide • Emulsifier: part by weight of alkylaryl polyglycol ether To produce a suitable preparation of active compound, 1 part by weight of active compound is mixed with the stated amounts of solvent and emulsifier, and the concentrate is diluted with water to the desired concentration. Savoy cabbage (Brassica oleracea) heavily infested by the green peach aphid (Myzus persicae) is watered with a solution of the product of the desired concentration. After 10 days, the activity in % is determined. 100% means that all of the aphids have been killed: 0% means that none of the aphids have been killed.

Spodoptera frugiperda [2] = assay: Spodoptera frugiperda test on maize; drench application (Example B-1); details: soil, 336 h, mortality 14 days after treatment, read-out: % Activity (according to Abbott)
Protocol: Spodoptera fugiperda Test on Maize; […] Application • Solvent: 7 parts by weight of dimethylformamide • Emulsifier: 1 part by weight of alkylaryl polyglycol ether To produce a suitable preparation of active compound, 1 part by weight of active compound is mixed with the stated amounts of solvent and emulsifier, and the concentrate is diluted with water to the desired concentration. Maize plants (Zea mays) are watered with a solution of the product in question and infested with the armyworm (Spadoptera frugiperda). After 14 days, the activity in % is determined. 100% means that all caterpillars have been killed; 0% means that none of the caterpillars have been killed.

| Structure (SMILES) | pest or weed control at 1 mg/plant (Heliothis armigera) [%] | pest or weed control at 1 mg/plant (Plutella xylostella) [%] | pest or weed control at 1 mg/plant (Spodoptera frugiperda [1]) [%] | inhibition at 20 ppm (Diabrotica balteata) [%] | inhibition at 20 ppm (Myzus persicae) [%] | pest or weed control at 0.5 mg/plant (Heliothis armigera) [%] | pest or weed control at 0.5 mg/plant (Plutella xylostella) [%] | pest or weed control at 0.5 mg/plant (Spodoptera frugiperda [1]) [%] | inhibition at 20 ppm (Spodoptera frugiperda [2]) [%] |
| --- | --- | --- | --- | --- | --- | --- | --- | --- | --- |
| Cc1cc(C#N)cc(C(=O)NC(C)C)c1NC(=O)c1cc(Cn2nnc(C(F)(F)F)n2)nn1-c1ncccc1Br [(I-1-67)] | 100 | 100 | 90 | – | – | – | – | – | – |
| Cc1cc(C#N)cc(C(=O)NC(C)(C)C)c1NC(=O)c1cc(Cn2nnc(C(F)(F)F)n2)nn1-c1ncccc1F [(I-1-70)] | 95 | 100 | 90 | – | – | – | – | – | – |
| CNC(=O)c1cc(C#N)cc(C)c1NC(=O)c1cc(Cn2nnc(C(F)(F)F)n2)nn1-c1c(F)cccc1Cl [(I-1-66)] | 100 | 90 | 95 | 90 | 90 | – | – | – | – |
| Cc1cc(C#N)cc(C(=O)NC(C)(C)C)c1NC(=O)c1cc(Cn2nnc(C(F)(F)F)n2)nn1-c1ncccc1Cl [(I-1-63)] | – | – | – | – | – | 100 | 100 | 100 | – |
| CNC(=O)c1cc(F)cc(C)c1NC(=O)c1cc(Cn2nnc(C(F)(F)F)n2)nn1-c1ncccc1Cl [(I-1-61)] | – | – | – | – | – | 100 | 100 | 100 | – |
| CCNC(=O)c1cc(C#N)cc(C)c1NC(=O)c1cc(Cn2nnc(C(F)(F)F)n2)nn1-c1ncccc1Cl [(I-1-3)] | – | – | – | – | 90 | 100 | 100 | 100 | – |
| Cc1cc(C#N)cc(C(=O)NC(C)(C)C)c1NC(=O)c1cc(Cn2nnc(C(F)(F)F)n2)nn1-c1ncccc1Br [(I-1-65)] | 100 | 100 | 95 | – | – | – | – | – | – |
| CNC(=O)c1cc(I)cc(C)c1NC(=O)c1cc(Cn2nnc(C(F)(F)F)n2)nn1-c1ncccc1Cl [(I-1-69)] | – | – | – | 100 | – | 100 | 100 | 85 | – |
| CNC(=O)c1cc(C#N)cc(C)c1NC(=O)c1cc(Cn2nnc(C(F)(F)F)n2)nn1-c1ncccc1Cl [(I-1-1)] | – | – | – | 100 | – | – | – | – | 100 |
| Cc1cc(Br)cc(C(=O)NCC#N)c1NC(=O)c1cc(Cn2nnc(C(F)(F)F)n2)nn1-c1ncccc1Cl [(I-1-68)] | – | – | – | 100 | – | 100 | 100 | 100 | – |
| CNC(=O)c1cc(C#N)cc(C)c1NC(=O)c1cc(Cn2nnc(C(F)(F)F)n2)nn1-c1ncccc1Br [(I-1-62)] | – | – | – | 100 | 80 | 95 | 100 | 98 | – |
| Cc1cc(C#N)cc(C(=O)NC(C)(C)C)c1NC(=O)c1cc(Cn2nnc(C3CC3)n2)nn1-c1ncccc1Cl [(I-1-71)] | – | – | – | – | – | – | 90 | 85 | – |
| Cc1cc(C#N)cc(C(=O)NC(C)(C)C)c1NC(=O)c1cc(Cn2nnc(C(F)(F)F)n2)nn1-c1ncccc1Cl [(I-1-2)] | – | – | – | – | – | – | – | – | 100 |
| CNC(=O)c1cc(Br)cc(C)c1NC(=O)c1cc(Cn2nnc(C(F)(F)F)n2)nn1-c1ncccc1Cl [(I-1-64)] | – | – | – | – | – | 100 | 100 | 100 | – |
